In patent US10092648B2, “Selective glucagon-like-peptide-2 (GLP-2) analogues” (Zealand Pharma A/S, priority 2006, dated 2018):
Like-named read-outs stand apart in the source and are kept apart here.

Assays:
male C57BL mice [1] = experiment: In vivo stimulation of stomach growth, 200 nmol/kg (Example 12); settings: for Sensitivity index Stomach/Co: ratio Stomach-BW / Colon-BW; for Stomach-BW, compared to 1559 in %: stomach weight relative to body weight, relative to ZP1559
Summary of the method: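 Mice (n=6-10/group) received 200 nmol/kg s.c. once daily for 3 days, with PBS pH 7.4 vehicle and an equimolar GLP-2 comparator. Stomach/colon sensitivity index relative to GLP-2 was calculated, with ≥1.05 deemed stomach-selective.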

male C57BL mice [2] = experiment: In vivo stimulation of intestinal growth, 200 nmol/kg (Example 11); settings: for Colon-BW, compared to 1559 in %: colon weight relative to body weight; for Colon-BW, compared to 1559 in % / SI-BW, compared to 1559 in %: relative to ZP1559; for Sensitivity index Si/Co: ratio SI-BW / Colon-BW; for SI-BW, compared to 1559 in %: small intestine weight relative to body weight
Summary of the method: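 Mice (n=6-10 per group) dosed s.c. at 200 nmol/kg once daily for three days; controls received equimolar [[MUT]]GLP-2 or PBS pH 7.4 vehicle.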

hGLP-2 receptor [3] = molecular target: T1, hGLP-2 receptor (Homo sapiens, UniProt O95838); experiment: In vitro screening for agonism on the GLP-2 receptor recombinantly expressed in BHK-21 cells (CRE-luciferase reporter); assay type: cell-based
T1 construct: expressed in transfected cells; host or cells: BHK-21 (C13) cells, transient transfection with Lipofectamine 2000
T1 sequence (O95838 1-553): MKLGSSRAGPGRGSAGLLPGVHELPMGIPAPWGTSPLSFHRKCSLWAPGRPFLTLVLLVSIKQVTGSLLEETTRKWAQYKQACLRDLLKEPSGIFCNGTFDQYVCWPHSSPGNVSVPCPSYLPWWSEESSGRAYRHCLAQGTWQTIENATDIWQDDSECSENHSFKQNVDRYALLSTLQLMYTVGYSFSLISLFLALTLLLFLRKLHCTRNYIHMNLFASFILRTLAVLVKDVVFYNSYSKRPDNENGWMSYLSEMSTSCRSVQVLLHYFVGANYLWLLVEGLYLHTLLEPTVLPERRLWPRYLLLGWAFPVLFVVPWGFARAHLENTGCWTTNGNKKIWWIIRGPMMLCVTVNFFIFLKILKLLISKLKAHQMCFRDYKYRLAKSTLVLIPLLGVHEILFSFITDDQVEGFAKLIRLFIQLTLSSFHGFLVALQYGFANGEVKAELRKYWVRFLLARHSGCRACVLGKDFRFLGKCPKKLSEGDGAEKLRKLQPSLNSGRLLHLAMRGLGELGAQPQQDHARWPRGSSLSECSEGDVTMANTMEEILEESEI
Protocol: The screening was done using BHK21 cells transiently transfected with GLP-2 receptor and the CRE-luciferase reporter gene construct. Dose-response curves and EC50 values were determined using seven concentrations from 10 fM to 10 nM and triplicate points for each concentration. Control peptide was used on all test plates. BHK-21 cells are seeded in 10 cm TC-Petri dishes and grown to 70-80% confluency. Subsequently, medium is changed to serum-free transfection medium. DNA (7.5 μg hGLP-2 receptor vector and 7.5 μg CRE-luciferase vector) and Lipofectamine 2000 are diluted in OptiMEM, combined, and added to the cells after 20-30 min. Cells are incubated in the incubator at 37° C., 5% CO2 for 4 hr, trypsinized, and reseeded at 35,000 cells per well in 96-well plates. Cells are incubated overnight in full growth medium in order to allow expression of the transgenes. […] Baseline activity is controled with stimulation buffer alone. These solutions are pre-warmed to 37° C. for 30 min. Cells are rinsed with pre-warmed (37° C.) stimulation buffer, and incubated with 100 μl of the pre-warmed peptide dilutions and control for 5 hr at 37° C., 5% CO2. The LucLite enzyme substrate/lysis buffer is prepared shortly before the end of the incubation. 100 μl LucLite substrate are added to each well, and light emission is counted on a suitable counter (e.g. Wallac VictorII). EC50 values are derived from the raw data by fitting with a four parameter logistic equation (Microcal Origin 5.0 or GraphPad 4).

male C57BL mice [4] = experiment: In vivo stimulation of intestinal growth, 800 nmol/kg (Example 10); design: key to Small intestine-colon sensitivity index: (SI/Colon) of compound divided by (SI/Colon) of reference GLP-2; settings: 800 nmol/kg s.c. once daily for 3 days; for Small intestine-colon sensitivity index: (SI/Colon)x/(SI/Colon)[Gly2]GLP-2; for Sensitivity index Si/Colon / Sensitivity index Stomach/Co: relative to 1559; for Colon: colon mass relative to BW, % vs. [Gly2]GLP-2; for SI (% vs. [Gly2]GLP-2: small intestine mass relative to BW, [Gly2]GLP-2 = 100%
Source text: Individual groups (n=6-10) of mice were given 800 nmol/kg of each compound, s.c, once daily for three consecutive days. For comparison purposes other groups of animals were given either an equimolar dose of [[…]]GLP-2 (ZP1559) or vehicle (phosphate buffered saline, pH 7.4) in the same dosing regimen Twenty-four hours after the last dose of compound had been given the mice were sacrificed and the small intestine (from the pylorus to the cecum) and the colon (intestine distal to cecum) was emptied and weighed. To correct for slight difference in body weight (BW), the organ mass of the small intestine (SI) and colon were expressed relative to BW. The non-selective reference compound [[…]]GLP-2 has been reported to stimulate gastrointestinal growth in both esophagus, stomach, small intestine and colon and to evaluate differences in growth pattern induced by compounds, the small intestine-colon sensitivity index of compound X was calculated as: […]

[5] = DPP IV degradation and renal clearance; Tavares et al. 2000; cited from earlier work
hGLP-2 receptor [6] = molecular target: T2, hGLP-2 receptor (human, UniProt O95838 1-553); experiment: cell-based or functional assay
T2 sequence (looked up): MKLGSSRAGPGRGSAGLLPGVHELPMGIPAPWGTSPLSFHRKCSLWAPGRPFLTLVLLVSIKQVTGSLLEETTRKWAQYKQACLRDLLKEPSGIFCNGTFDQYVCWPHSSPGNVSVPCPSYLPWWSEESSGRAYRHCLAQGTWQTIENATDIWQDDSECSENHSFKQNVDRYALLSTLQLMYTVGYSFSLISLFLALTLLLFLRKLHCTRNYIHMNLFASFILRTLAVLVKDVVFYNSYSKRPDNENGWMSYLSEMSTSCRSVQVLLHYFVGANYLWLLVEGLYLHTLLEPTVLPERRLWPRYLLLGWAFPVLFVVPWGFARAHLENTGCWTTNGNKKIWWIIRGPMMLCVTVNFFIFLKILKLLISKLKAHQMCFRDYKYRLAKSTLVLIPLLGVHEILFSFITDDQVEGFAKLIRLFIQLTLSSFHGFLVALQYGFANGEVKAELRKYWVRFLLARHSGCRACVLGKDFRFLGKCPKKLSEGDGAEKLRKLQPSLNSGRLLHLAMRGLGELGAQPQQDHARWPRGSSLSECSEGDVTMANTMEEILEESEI

[7] = BHK21 cells transiently transfected with GLP-2 receptor and CRE-luciferase, 10 fM to 10 nM, read-out: pEC50 (converted)

Molecule | Colon-BW, compared to 1559 in % (male C57BL mice [4]) | SI-BW, compared to 1559 in % (male C57BL mice [4]) | Sto-BW, compared to 1559 in % (male C57BL mice [4]) | Sensitivity index Si/Colon (male C57BL mice [4]) | Sensitivity index Stomach/Co (male C57BL mice [4]) | Colon (male C57BL mice [4]) | SI (% vs. [Gly2]GLP-2 (male C57BL mice [4]) | EC50 (hGLP-2 receptor [3]; [7]) | pEC50 (CRE-luciferase reporter, BHK-21 cells transiently transfected with hGLP-2 receptor) (hGLP-2 receptor [6]) | also measured
H-HGEGSFSDELATILEALAASDFISWLISTKITD-NH2 [ZP2268] | 112.5% | 123.6% | 87.4% | 1.10 | 0.78 | 112 ± 4 % | 124 ± 3 % |  |  | Sensitivity index Stomach/Co (male C57BL mice [1]): 0.78; Stomach-BW, compared to 1559 in % (male C57BL mice [1]): 87.4%; Colon-BW, compared to 1559 in % (male C57BL mice [2]): 112.5%; Sensitivity index Si/Co (male C57BL mice [2]): 1.10; SI-BW, compared to 1559 in % (male C57BL mice [2]): 123.6%; EC50 (hGLP-2 receptor [3]): 0.00617 nM; Preferential stimulation of epithelial growth in the small intestine (summary) (male C57BL mice [4]): preferentially stimulating epithelial growth in the small intestine; Small intestine-colon sensitivity index (male C57BL mice [4]): 1.10 ± 0.03
H-HGEGSFSDELETILEELAAEDFIEWLIETKITD-NH2 [ZP2266] | 100.6% | 95.3% | 93.6% | 0.95 | 0.93 | 101 ± 2% | 95 ± 1% | 0.558 nM |  | Organ selectivity (FIG. 8, unselective compounds) (male C57BL mice [4]): unselective for the small intestine, colon or stomach
H-HGEGSFSDELATILESLAAADFISWLIATKITD-NH2 [ZP2272] | 104.7% | 118.1% | 96% | 1.13 | 0.92 | 105 ± 6% | 118 ± 2% | 0.00537 nM |  | Sensitivity index Stomach/Co (male C57BL mice [1]): 0.92; Stomach-BW, compared to 1559 in % (male C57BL mice [1]): 96%; Colon-BW, compared to 1559 in % (male C57BL mice [2]): 104.7%; Sensitivity index Si/Co (male C57BL mice [2]): 1.13; SI-BW, compared to 1559 in % (male C57BL mice [2]): 118.1%; Preferential stimulation of epithelial growth in the small intestine (summary) (male C57BL mice [4]): preferentially stimulating epithelial growth in the small intestine
H-His-Ala-Asp-Gly-Ser-Phe-Ser-Asp-Glu-Met-Asn-Thr-Ile-Leu-Asp-Asn-Leu-Ala-Ala-Arg-Asp-Phe-Ile-Asn-Trp-Leu-Ile-Gln-Thr-Lys-Ile-Thr-Asp-OH [GLP-2(1-33)] |  |  |  |  |  |  |  |  |  | half life [5]: about 7 minutes
H-HGEGSFSDELSTILESLAAADFIAWLIATKITD-NH2 [ZP2267] | 109.4% | 108.5% | 85.9% | 0.99 | 0.79 | 109 ± 4% | 108 ± 2% | 0.0135 nM |  | Organ selectivity (FIG. 8, unselective compounds) (male C57BL mice [4]): unselective for the small intestine, colon or stomach
H-HGEGSFSDELKTILESLAAADFIEWLIQTKITD-NH2 [ZP2269] | 94.7% | 97.4% | 99.8% | 1.03 | 1.05 | 95 ± 3% | 97 ± 2% | 0.0912 nM |  | Organ selectivity (FIG. 8, unselective compounds) (male C57BL mice [4]): unselective for the small intestine, colon or stomach
H-HGEGSFSDELSTILESLAASDFISWLISTKITD-NH2 [ZP2263] |  |  |  |  |  |  |  | 0.0145 nM |  | 
H-HGEGSFSDELATILEALAAADFIAWLIATKITD-NH2 [ZP2264] | 109.5% | 125.7% | 87% | 1.15 | 0.79 | 109 ± 3 % | 126 ± 3 % | 0.00316 nM |  | Sensitivity index Stomach/Co (male C57BL mice [1]): 0.79; Stomach-BW, compared to 1559 in % (male C57BL mice [1]): 87%; Colon-BW, compared to 1559 in % (male C57BL mice [2]): 109.5%; Sensitivity index Si/Co (male C57BL mice [2]): 1.15; SI-BW, compared to 1559 in % (male C57BL mice [2]): 125.7%; EC50 (hGLP-2 receptor [3]; agonism on GLP-2 receptor in BHK-21 cells, read-out: IC 50 (FIG. 5)): 0.00355 nM; Preferential stimulation of epithelial growth in the small intestine (summary) (male C57BL mice [4]): preferentially stimulating epithelial growth in the small intestine; Small intestine-colon sensitivity index (male C57BL mice [4]): 1.15 ± 0.03
H-HGEGSFSDELNTILESLAASDFISWLISTKITD-NH2 [ZP2270] |  |  |  |  |  |  |  |  |  | EC50 (hGLP-2 receptor [3]): 0.0589 nM
H-HGEGSFSDELNTILESLAASDFISWLISTKITD-NH2 [ZP2270] |  |  |  |  |  |  |  |  | 10.2 | 
H-HGEGSFSDELATILEALAASDFISWLISTKITD-NH2 [ZP2268] |  |  |  |  |  |  |  |  | 11.2 | 
H-HGEGSFSSELSTILDALAARDFIAWLIATKITDK-OH [ZP2242] |  |  |  |  |  |  |  |  | 12.4 | 
H-HGEGSFSDELATILESLAAADFISWLIATKITD-NH2 [ZP2272] |  |  |  |  |  |  |  |  | 11.3 | 
H-HGEGSFSDELKTILESLAAADFIEWLIQTKITD-NH2 [ZP2269] |  |  |  |  |  |  |  |  | 10 | 
